Data: US6242461A, “Use of aryl substituted azabenzimidazoles in the treatment of HIV and AIDS related diseases” (Pfizer Inc., priority 2000, dated 2001)

biological target: HIV-1 RT (Human immunodeficiency virus type 1 group M subtype B, UniProt P04585); test: HIV Reverse Transcriptase Assay (RNA-dependent DNA polymerase activity, 3H-dCTP incorporation); type: biochemical; settings: 60 nM HIV-RT, tRNA-Lys3 primer/viral RNA template, 45 minutes, room temperature, 0.7% DMSO
Description: Utilizing the Reverse Transcriptase (RT) Assay described below, compounds can be tested for their ability to inhibit the RNA-dependent DNA polymerase activity of HIV-1 RT. Compounds described in the Examples which appear below, were so tested.
HIV Reverse Transcriptase Assay:
HIV reverse transcriptase activity is assessed by following the incorporation of ^3 H-dCTP into newly synthesized DNA using the natural tRNA^Lys3 primer annealed to a viral RNA template sequence. Assays are performed in a final volume of 100 μL in 96-well plates. Briefly, assay buffer (50 mM Tris pH 7.5, 50 mM NaCl, 5 mM MgCl2), primer/template (10-60 nM), dNTPs (dATP, dGTP, dTTP; 100 nM each), and ^3 H-dCTP (180 nM) are combined, and the reaction is initiated with 60 nM HIV-RT. After 45 minutes at room temperature, the assay is quenched with 0.1 M EDTA and harvested onto a DEAE filter using a Skatron Harvester with a solution of 5% Na2 HPO4 -2% sodium pyrophosphate. The filter mats are dried and placed into a plastic bag with 10 ml of scintillant, and counted on a Wallac BetaPlate reader. Non-specific activity is determined by adding 0.1 M EDTA at the start of the assay.
To assess the activity of compounds on HIV-RT activity, compounds are added to the assay prior to addition of enzyme. Compounds are dissolved in 14% DMSO (0.7% final), and tested at 32, 10, 3.2, 1.0, 0.32, and 0.10 μM in triplicate. % Inhibition is calculated according to the following equation: […]

In order of falling inhibition at 10 µM:
1. Cc1nc2cnccc2n1-c1ccc(Cn2c(=O)sc3ccccc32)cc1 [Example 1, 3-[4-(2-Methyl-imidazo[4,5-c]pyridin-1-yl)-benzyl]-3H-benzothiazol-2-one]  78%
2. Cc1nc2cnccc2n1-c1ccc(Cn2c(=O)sc3cc(F)ccc32)cc1 [Example 2, 6-Fluoro-3-[4-(2-methyl-imidazo[4,5-c]pyridin-1-yl)-benzyl]-3H-benzothiazol-2-one]  76%
3. CCc1nc2cnccc2n1-c1ccc(Cn2c(=O)sc3ccccc32)cc1 [Example 3, 3-[4-(2-Ethyl-imidazo[4,5-c]pyridin-1-yl)-benzyl]-3H-benzothiazol-2-one]  72%
4. Cc1nc2cnccc2n1-c1ccc(Cn2c(=O)oc3ccccc32)cc1 [Example 13, 3-[4-(2-Methyl-imidazo[4,5-c]pyridin-1-yl)-benzyl]-3H-benzooxazol-2-one]  61%
5. Cc1nc2cnccc2n1-c1ccc(Cn2c(=O)sc3cc(Cl)ccc32)cc1 [Example 7, 6-Chloro-3-[4-(2-methyl-imidazo[4,5-c]pyridin-1-yl)-benzyl]-3H-benzothiazol-2-one]  45%
6. COc1ccc2sc(=O)n(Cc3ccc(-n4c(C)nc5cnccc54)cc3)c2c1 [Example 8, 5-Methoxy-3-[4-(2-methyl-imidazo[4,5-c]pyridin-1-yl)-benzyl]-3H-benzothiazol-2-one]  41%
7. Cc1ccc2c(c1)sc(=O)n2Cc1ccc(-n2c(C)nc3cnccc32)cc1 [Example 5, 6-Methyl-3-[4-(2-methyl-imidazo[4,5-c]pyridin-1-yl)-benzyl]-3H-benzothiazol-2-one]  30%
8. CC(C)c1nc2cnccc2n1-c1ccc(Cn2c(=O)sc3ccccc32)cc1 [Example 4, 3-[4-(2-lsopropyl-imidazo[4,5-c]pyridin-1-yl)-benzyl]-3H-benzothiazol-2-one]  23%
9. COc1ccc2c(c1)sc(=O)n2Cc1ccc(-n2c(C)nc3cnccc32)cc1 [Example 6, 6-Methoxy-3-[4-(2-methyl-imidazo[4,5-c]pyridin-1-yl)-benzyl]-3H-benzothiazol-2-one]  22%
10. Cc1nc2ccccc2n1Cc1ccc(-n2c(C)nc3cnccc32)cc1 [Example 16, 2-Methyl-1-[4-(2-methyl-benzoimidazol-1-ylmethyl)-phenyl]1H-imidazo[4,5-c]pyridine]  20%
